Test results: patent US20230192720A1, “MACROCYCLIC COMPOUNDS” (ZENO MANAGEMENT, INC., priority 2019, published 2023)

System: NCI-H929 cells
Test: NCI-H929 cell proliferation assay (CellTiter-Glo)
Format: cell-based
Settings: 72 h compound treatment
Experimental: NCI-H929 Cell Proliferation Assay
Cell proliferation was measured using the CellTiter-Glo® Luminescent Cell Viability Assay. The assay involved the addition of a single reagent (CellTiter-Glo® Reagent) directly to cells cultured in serum-supplemented medium. NCI-H929 (ATCC CRL-9068) cells were cultured according to ATCC recommendations and were seeded at 3,000 cells per well.
Each compound evaluated was prepared as a DMSO stock solution (10 mM). Compounds were tested in duplicate on each plate, with a 10-point serial dilution curve (1:3 dilution). Compound treatment ([…]) was added from the compound dilution plate to the cell plate. The highest compound concentration was 10 μM (final), with a 0.1% final DMSO concentration. Plates were then incubated at 37° C., 5% CO2. After 72 h of compound treatment, cell plates were equilibrated at rt for approximately 30 mins. An equi-volume amount of CellTiter-Glo® Reagent (40 μL) was added to each well. Plates were mixed for 2 mins on an orbital shaker to induce cell lysis and then incubated at rt for 10 mins to stabilize the luminescent signal. Luminescence was recorded using an Envision plate reader according to CellTiter-Glo protocol. IC50 of each compound was calculated using GraphPad Prism by nonlinear regression analysis.

| SMILES | IC50 |
| --- | --- |
| Cn1nc2cc1CSc1cc3c(c(c1)OCCCc1c(C(=O)O)n(C)c4c(c(Cl)ccc14)-c1c(nn4c1CCCC4)CNC2)NCCC3 (atropisomer, axis not shown) [Example 12B, (Sa)-(−)-(Z)-1^6-Chloro-1^1,6^1-dimethyl-2^4,2^5,2^6,2^7,9^1,9^2,9^3,9^4-octahydro-1^1H,6^1H-10-oxa-8-thia-4-aza-9(6,8)-quinolina-2(3,2)-pyrazolo[1,5-a]pyridina-1(7,3)-indola-6(3,5)-pyrazolacyclotridecaphane-1^2-carboxylic acid] | 100 to 1000 nM |
| CN1Cc2cc(n(C)n2)CSc2cc3c(c(c2)OCCCc2c(C(=O)O)n(C)c4c(c(Cl)ccc24)-c2c(nn4c2CCC4)C1)NCCC3 (atropisomer, axis not shown; (Ra)) [Example 3A, (Ra)-(+)-(Z)-1^6-Chloro-1^1,6^1,4-trimethyl-2^5,2^6,9^1,9^2,9^3,9^4-hexahydro-1^1H,2^4H,6^1H-10-oxa-8-thia-4-aza-9(6,8)-quinolina-1(7,3)-indola-2(3,2)-pyrrolo[1,2-b]pyrazola-6(3,5)-pyrazolacyclotridecaphane-1^2-carboxylic acid] | ≥ 1000 nM |
| CN1Cc2cc(n(C)n2)CSc2cc3c(c(c2)OCCCc2c(C(=O)O)n(C)c4c(c(Cl)ccc24)-c2c(nn4c2CCCC4)C1)NCCC3 (atropisomer, axis not shown; (Ra)) [Example 4A, (Ra)-(+)-(Z)-1^6-Chloro-1^1,6^1,4-trimethyl-2^4,2^5,2^6,2^7,9^1,9^2,9^3,9^4-octahydro-1^1H,6^1H-10-oxa-8-thia-4-aza-9(6,8)-quinolina-2(3,2)-pyrazolo[1,5-a]pyridina-1(7,3)-indola-6(3,5)-pyrazolacyclotridecaphane-1^2-carboxylic acid] | ≥ 1000 nM |
| CN1Cc2cc(n(C)n2)CCc2cc3c(c(c2)OCCCc2c(C(=O)O)n(C)c4c(c(Cl)ccc24)-c2c(nn4c2CCC4)C1)NCCC3 (atropisomer, axis not shown; (Ra)) [Example 5A, (Ra)-(+)-(Z)-1^6-Chloro-1^1,6^1,4-trimethyl-2^5,2^6,9^1,9^2,9^3,9^4-hexahydro-1^1H,2^4H,6^1H-10-oxa-4-aza-9(6,8)-quinolina-1(7,3)-indola-2(3,2)-pyrrolo[1,2-b]pyrazola-6(3,5)-pyrazolacyclotridecaphane-1^2-carboxylic acid] | ≤ 100 nM |
| CN1Cc2cc(n(C)n2)CCc2cc3c(c(c2)OCCCc2c(C(=O)O)n(C)c4c(c(Cl)ccc24)-c2c(nn4c2CCCC4)C1)NCCC3 (atropisomer, axis not shown; (Ra)) [Example 6A, (Ra)-(+)-(Z)-1^6-Chloro-1^1,6^1,4-trimethyl-2^4,2^5,2^6,2^7,9^1,9^2,9^3,9^4-octahydro-1^1H,6^1H-10-oxa-4-aza-9(6,8)-quinolina-2(3,2)-pyrazolo[1,5-a]pyridina-1(7,3)-indola-6(3,5)-pyrazolacyclotridecaphane-1^2-carboxylic acid] | ≤ 100 nM |
| Cn1nc2cc1CSc1cc3c(c(c1)OCCCc1c(C(=O)O)n(C)c4c(c(F)ccc14)-c1c(nn4c1CCCC4)CSC2)NCCC3 (atropisomer, axis not shown; (Ra)) [Example 8A, (Ra)-(+)-(Z)-1^6-Fluoro-1^1,6^1-dimethyl-2^4,2^5,2^6,2^7,9^1,9^2,9^3,9^4-octahydro-1^1H,6 ^1H-10-oxa-4,8-dithia-9(6, 8)-quinolina-2(3,2)-pyrazolo[1,5-a]pyridina-1(7,3)-indola-6(3,5)-pyrazolacyclotridecaphane-1^2-carboxylic acid] | ≥ 1000 nM |
| Cc1nn(C23CC(C2)C3)c2c1-c1c(Cl)ccc3c(c(C(=O)O)n(C)c13)CCCOc1cc(cc3c1NCCC3)SCc1cc(nn1C)CSC2 (atropisomer, axis not shown; (Ra)) [Example 9A, (Ra)-(+)-(Z)-2^1-(Bicyclo [1.1.1]pentan-1-yl)-1^6-chloro-1^1,2^3,6^1-trimethyl-9^1,9^2,9^3,9^4-tetrahydro-1^1H,2^1H,6^1H-10-oxa-4,8-dithia-9(6,8)-quinolina-1(7,3)-indola-2(4,5),6(3,5)-dipyrazolacyclotridecaphane-1^2-carboxylic acid] | ≥ 1000 nM |
| Cc1nn(C23CC(C2)C3)c2c1-c1c(F)ccc3c(c(C(=O)O)n(C)c13)CCCOc1cc(cc3c1NCCC3)SCc1cc(nn1C)CSC2 (atropisomer, axis not shown; (Ra)) [Example 10A, (Ra)-(+)-(Z)-2^1-(Bicyclo[1.1.1]pentan-1-yl)-1^6-fluoro-1^1,2^3,6^1-trimethyl-9^1,9^2,9^3,9^4-tetrahydro-1^1H,2^1H,6^1H-10-oxa-4,8-dithia-9(6,8)-quinolina-1(7,3)-indola-2(4,5),6(3,5)-dipyrazolacyclotridecaphane-1^2-carboxylic acid] | ≥ 1000 nM |
| Cn1nc2cc1CSc1cc3c(c(c1)OCCCc1c(C(=O)O)n(C)c4c(c(Cl)ccc14)-c1c(nn4c1CCCC4)CNC2)NCCC3 (atropisomer, axis not shown; (Ra)) [Example 12A, (Ra)-(+)-(Z)-1^6-Chloro-1^1,6^1-dimethyl-2^4,2^5,2^6,2^7,9^1,9^2,9^3,9^4-octahydro-1^1H,6^1H-10-oxa-8-thia-4-aza-9(6,8)-quinolina-2(3,2)-pyrazolo[1,5-a]pyridina-1(7,3)-indola-6(3,5)-pyrazolacyclotridecaphane-1^2-carboxylic acid] | ≥ 1000 nM |
| CCn1nc(C)c2c1CSCc1cc(n(C)n1)CSc1cc3c(c(c1)OCCCc1c(C(=O)O)n(C)c4c-2c(Cl)ccc14)NCCC3 (atropisomer, axis not shown; (Ra)) [Example 14A, (Ra)-(+)-(Z)-1^6-Chloro-2^1-ethyl-1^1,2^3,6^1-trimethyl-9^1,9^2,9^3,9^4-tetrahydro-1^1H,2^1H,6^1H-10-oxa-4,8-dithia-9(6,8)-quinolina-1(7,3)-indola-2(4,5),6(3,5)-dipyrazolacyclotridecaphane carboxylic acid] | ≤ 100 nM |
| CN1Cc2cc(n(C)n2)CSc2cc3c(c(c2)OCCCc2c(C(=O)O)n(C)c4c(c(Cl)ccc24)-c2c(nn4c2CCC4)C1)NCCC3 (atropisomer, axis not shown; (Sa)) [Example 3B, (Sa)-(−)-(Z)-1^6-Chloro-1^1,6^1,4-trimethyl-2^5,2^6,9^1,9^2,9^3,9^4-hexahydro-1^1H,2^4H,6^1H-10-oxa-8-thia-4-aza-9(6,8)-quinolina-1(7,3)-indola-2(3,2)-pyrrolo[1,2-b]pyrazola-6(3,5)-pyrazolacyclotridecaphane-1^2-carboxylic acid] | ≤ 100 nM |
| CN1Cc2cc(n(C)n2)CSc2cc3c(c(c2)OCCCc2c(C(=O)O)n(C)c4c(c(Cl)ccc24)-c2c(nn4c2CCCC4)C1)NCCC3 (atropisomer, axis not shown; (Sa)) [Example 4B, (Sa)-(−)-(Z)-1^6-Chloro-1^1,6^1,4-trimethyl-2^4,2^5,2^6,2^7,9^1,9^2,9^3,9^4-octahydro-1^1H,6^1H-10-oxa-8-thia-4-aza-9(6,8)-quinolina-2(3,2)-pyrazolo[1,5-a]pyridina-1(7,3)-indola-6(3,5)-pyrazolacyclotridecaphane-1^2-carboxylic acid] | ≤ 100 nM |

Same assay, conditions: Homo sapiens, NCI-H929, 72 h, 72 h compound treatment

| SMILES | IC50 |
| --- | --- |
| Cn1nc2cc1CSc1cc3c(c(c1)OCCCc1c(C(=O)O)n(C)c4c(c(F)ccc14)-c1c(nn4c1CCC4)CSC2)NCCC3 (atropisomer, axis not shown; (Ra)) [Example 7A, (Ra)-(+)-(Z)-1^6-Fluoro-1^1,6^1-dimethyl-2^5,2^6,9^1,9^2,9^3,9^4-hexahydro-1^1H,2^4H,6^1H-10-oxa-4,8-dithia-9(6,8)-quinolina-1(7,3)-indola-2(3,2)-pyrrolo[1,2-b]pyrazola-6(3,5)-pyrazolacyclotridecaphane-1^2-carboxylic acid] | 100 to 1000 nM |
| CN1CCCc2cc3cc(c21)OCCCc1c(C(=O)O)n(C)c2c(c(Cl)ccc12)-c1c(nn2c1CCC2)CSCc1cc(n(C)n1)CS3 (atropisomer, axis not shown; (Ra)) [Example 13A, (Ra)-(+)-(Z)-1^6-Chloro-1^1,6^1,9^1-trimethyl-2^5,2^6,9^1,9^2,9^3,9^4-hexahydro-1^1H,2^4H,6^1H-10-oxa-4,8-dithia-9(6,8)-quinolina-1(7,3)-indola-2(3,2)-pyrrolo[1,2-b]pyrazola-6(3,5)-pyrazolacyclotridecaphane-1^2-carboxylic acid] | ≥ 1000 nM |
| Cn1nc2cc1CSc1cc3c(c(c1)OCCCc1c(C(=O)O)n(C)c4c(c(Cl)ccc14)-c1c(nn4c1CCC4)CSC2)NCCC3 (atropisomer, axis not shown; (Sa)) [Example 1B, (Sa)-(−)-(Z)-1^6-Chloro-1^1,6^1-dimethyl-2^5,2^6,9^1,9^2,9^3,9^4-hexahydro-1^1H,2^4H,6^1H-10-oxa-4,8-dithia-9(6,8)-quinolina-1(7,3)-indola-2(3 ,2)-pyrrolo[1,2-b]pyrazola-6(3,5)-pyrazolacyclotridecaphane-1^2-carboxylic acid] | ≥ 1000 nM |
| Cn1nc2cc1CSc1cc3c(c(c1)OCCCc1c(C(=O)O)n(C)c4c(c(Cl)ccc14)-c1c(nn4c1CCCC4)CSC2)NCCC3 (atropisomer, axis not shown; (Sa)) [Example 2B, (Sa)-(−)-(Z)-1^6-Chloro-1^1,6^1-dimethyl-2^4,2^5,2^6,2^7,9^1,9^2,9^3,9^4-octahydro-1^1H,6^1H-10-oxa-4,8-dithia-9(6,8)-quinolina-2(3,2)-pyrazolo[1,5-a]pyridina-1(7,3)-indola-6(3,5)-pyrazolacyclotridecaphane-1^2-carboxylic acid] | ≥ 1000 nM |
